Results: ChEMBL document CHEMBL1156648, “Tetrahdroxysqualene from Rhus taitensis shows antimycobacterial activity against Mycobacterium tuberculosis” (J Nat Prod, 2008)
Converted amounts (≈) assume the structure as drawn. The source made the active and inactive calls. The calls are words filed in the database; no cut-off is given here.

How the values were obtained:
[1] = Cytotoxicity against human CEM-TART cells after 72 hrs by MTT assay; type: cell-based
[2] = tested on: Mycobacterium tuberculosis; assay: Antimycobacterial activity against Mycobacterium tuberculosis H37Rv by MTT assay after 4 days by MTT assay; type: functional; conditions: 96 h
[3] = tested on: Mycobacterium tuberculosis; assay: Antimycobacterial activity against Mycobacterium tuberculosis H37Ra after 4 days by MTT assay; type: functional; conditions: 96 h
[4] = tested on: Mycobacterium tuberculosis; assay: Antimycobacterial activity against Mycobacterium tuberculosis H37Ra at 200 ug/ml after 4 days by MTT assay; type: functional, organism-based
[5] = tested on: Mycobacterium tuberculosis; assay: Antimycobacterial activity against Mycobacterium tuberculosis H37Rv at 100 ug/ml after 4 days by MTT assay; type: functional; conditions: 96 h, read-out: GI

Question: For `COc1cccc2c1C(=O)c1c(O)c3c(c(O)c1C2=O)C[C@@](O)(C(=O)CO)C[C@@H]3O[C@H]1C[C@H](N)[C@H](O)[C@H](C)O1` [DOXORUBICIN], which EC50 [1] is on record?
Answer: The EC50 was 0.0044 µg/mL (≈ 0.0081 µM).

Question: Which results are given for `CO[C@H]1/C=C/O[C@@]2(C)Oc3c(C)c(O)c4c(O)c(c(/C=N/N5CCN(C)CC5)c(O)c4c3C2=O)NC(=O)/C(C)=C\C=C\[C@H](C)[C@H](O)[C@@H](C)[C@@H](O)[C@@H](C)[C@H](OC(C)=O)[C@@H]1C` [RIFAMPIN]?
Answer: MIC [2]: 0.0025 µg/mL (≈ 0.00304 µM); MIC [3]: 0.0025 µg/mL (≈ 0.00304 µM)

Question: For `CC(C)=CCC/C(C)=C/CC/C(C)=C/CC/C=C(\C)CC/C=C(\C)CCC=C(C)C` [SQUALENE], which Activity [4] is on record?
Answer: Its Activity is “inactive”.

Question: And the MIC [2]?
Answer: The MIC was 100 µg/mL (≈ 243 µM).

Question: And the inhibition of growth at 100 µg/mL [5]?
Answer: Its inhibition of growth at 100 µg/mL is 99%.

Question: Which results are given for `C/C(=C\CC/C(C)=C/CC/C=C(\C)CC/C=C(\C)CCC=C(CO)CO)CCC=C(CO)CO` [TETRAHYDROXYSQUALENE]?
Answer: MIC [3]: 10 µg/mL (≈ 21.1 µM); EC50 [1]: 27.5 µg/mL (≈ 57.9 µM)
